Data: patent US5635379A, “D-2-alkyl-tryptophan and peptides containing same” (Deghenghi; Romano, priority 1990, dated 1997)
Values belong to the compound of their own block, whether it stands above or below them.

Experiments:
[1] = Stability of D-Trp and D-2-methyl-Trp in 1% solutions, peak area by HPLC; assay type: physicochemical; conditions: pH 2.2 citrate buffer, dark, helium (FIG. 1) and pH 5.4 acetate buffer, oxygen, constant light (FIG. 2)
[2] = test system: plasma testosterone; assay type: in vivo, Beagle dogs
Text: After an initial flare-up, plasma testosterone fell below castration levels after approximately 10 days, and was maintained for approximately 180 days.

[3] = test system: pituitary cell monolayers; assay: GH-releasing activity in pituitary cell culture (monolayers); assay type: cell-based, Sprague Dawley rats; conditions: for GH in medium: 2 hours incubation
Experimental: (§1) Male Sprague Dawley rats (Charles River, Calco, Italy) of 2-3 months of age were used. Rats were housed at 22 +2° C., with lighting cycle of 14 h light: 10 h dark (lights on from 06.00 to 20.00 h), at least 10 days before starting the experiments. A standard dry diet and water were available ad libitum.
Pituitary tissue used for cell dissociation included only the anterior lobe. Briefly, pituitary glands were collected in sterile F-10 medium and after cutting into small fragments incubated twice (30 minutes each) at 37° C. in F-10 medium containing 6% fetal calf serum and collagenase (2.5 mg/ml) (Boehringer, Mannheim GmbH, Germany). Fragments were then washed in Dulbecco's PBS, Ca^2+ and Mg^2+ free medium and mechanically dissociated. Single cell suspension was planted onto 24-well (2×10^5 cells/well) culture plates. The cells were incubated in F-10 medium supplemented with 10% horse serum, 4% fetal calf serum and gentamycin (25 μg/ml), in a humidified atmosphere of 5% CO2 and 95% air at 37° C.
After 3 days, the medium was removed and the cells washed twice with serum free F-10, then incubated with 1 ml of F-10 containing 0.1% BSA only, or with added various concentrations of synthetic peptides.
After incubation for 2 h at 37° C., media were collected and stored frozen at -20° C. until assayed for measurement of GH content.
(§2) Medium and plasma GH was measured by radioimmunoassay using materials supplied by the NIADDK Bethesda, Md. Values were expressed in term of NIASSK-rat-GH-RP-2 standard (potency 2 IU/ml), as ng/ml of medium or plasma.
(§3) The minimum detectable value of rat was 1.0 ng/ml; intra-assay variability was 6%. To avoid inter-assay variation, samples from each experiment were assayed simultaneously.

[4] = test system: GH release; assay: GH-releasing activity i.v. in male rats anesthetized with ketamine and xilazine; assay type: in vivo, Sprague Dawley rats
Experimental: as §1
(§4) Between 09.00-10.00 h rats were anesthetized with ketamine (58 mg/kg, Inoketam, VIRBAC, Milano) and xilazine (12 mg/kg, Rompun, Bayer, Milano). Thirty minutes later, a blood sample ([…]) was withdrawn from the exposed jugular vein, peptides were injected intravenously or subcutaneously, and further blood samples were collected 10, 20 and 30 minutes later.
as §2, §3

[5] = test system: GH release; assay: GH-releasing activity s.c. in male rats anesthetized with ketamine and xilazine; assay type: in vivo, Sprague Dawley rats
Experimental: as §1, §4, §2, §3

[6] = test system: GH release; assay: GH release in pentobarbital-anesthetized rats, s.c.; assay type: in vivo, Sprague Dawley rats
Experimental: Male Sprague Dawley rats weighing 225-250 g were divided in groups of five animals each. Rats were anesthetized with Nembutal injected intraperiteonally at 50 mg/kg, fifteen minutes prior to the first blood withdrawal taken over heparin by cardiac puncture (for determination of basal GH).
Subcutaneous injections of either HEXARELIN or GHRP-6 were given immediately after the first blood collection, and additional blood samples were collected 15 and 40 minutes later.
Measurement of rat GH was performed by a standard double antibody radioimmunoassay with reagents supplied by the National Pituitary Agency and the National Institute of Arthritis, Diabetes, and Digestive and Kidney Diseases. The standards used were NIADDK-NIH-rGH-RP-2. Statistical data were obtained with the Student's t Test at a significance level of 5%.

[7] = Acute cardiovascular toxicity in the rat, single i.v. dose, mortality; assay type: in vivo; conditions: observed up to 4 hours
Experimental: These two peptides were also tested for acute cardiovascular toxicity in the rat.
Dosages were calculated on the basis of the declared peptide content in each product, as specified below:
A single dose of HEXARELIN or GHRP-6 was administered to rats in different calendar dates in such a way that each group/dose should be treated in two subsequent days.
For each compound, appropriate amounts of solutions in 0.9% NaCl for injection were prepared just before treatment at the suitable concentrations. The solutions were sterilized by filtration (Millipore filter, pore size 0.22 μm). Owing to the type of the study (acute study) in which formulates were administered just after preparation, stability checks were not performed. Concentration checks were also not performed. The volume of solution injected was maintained constant at 1 ml/Kg.
The intravenous injections were done as a single dose in one vein of the tail with an appropriately gauged sterile, disposable, plastic syringe. The injection rate was about 0.1 ml/sec.
Periodical observations were made up to 4 hours after treatment. Abnormality and mortality were recorded. Body weight was recorded once during pre-trial and on the administration day to calculate the volumes to be injected.

[8] = test system: GH release; assay: GH response in conscious, freely-moving rats after antiserum pretreatment and i.v. peptide; assay type: in vivo; conditions: i.v. 25 μg/kg peptide, pooled over antiserum pretreatments
Experimental: Sixty male rats were prepared with indwelling venous catheters under ether anesthesia three days before experimentation. On the day of experimentation, all animals were given an iv heparin injection (100 IU; 0630 h). At 0700 h, animals were treated with 0.5 ml of either normal serum (control-as), somatostatin antiserum (somatostatin-as; 0.25 ml+0.25 ml saline), growth hormone-releasing hormone antiserum (GHRH-as; 0.25 ml+0.25 ml saline), or both somatostatin antiserum and growth hormone-releasing hormone antiserum (0.25 ml somatostatin-as+0.25 ml GHRH-as). Blood sampling began […] after antiserum pretreatment, with blood samples collected every 20 minutes for three hours. After the 180 minute sample (1100 h), animals were treated iv with 25 μg/kg of either Hexarelin or GHRP-6. Blood samples were then collected at 5, 10, 15, 20 30, 40, and 60 minutes after peptide treatment. All samples were centrifuged immediately and the plasma frozen until assayed. The peak GH response to Hexarelin and GHRP-6 as well as the area under the response curves (AUCs) for the thirty minutes following peptide injection were calculated. Data were subjected to repeated measures analysis of variance and are expressed as mean ±SEM.

[9] = PLGA implant rods, 20 or 25% loading (7 or 10 mg), subcutaneous

time the compound is stable in solution (HPLC peak area) [1]: ≥ 60 days
Compound: Cc1[nH]c2ccccc2c1C[C@@H](N)C(=O)O [Example 1, 2-methyl-D-tryptophan]

Compound: Pyro-Glu-His-Ser-Tyr-D-2-alkyl-Trp-Leu-Arg-Pro-NHCH2 CH3 [Example 3]
time plasma testosterone was maintained below castration levels [2, 9]: approximately 180 days | time until plasma testosterone fell below castration levels [2, 9]: approximately 10 days | response to stimulation by i.v. administration of the peptide ([2]; day 145 after implant): absence of response | clinical side effects ([2]; dog, in vivo, sc): No clinical side effects were observed

Compound: N[C@H](Cc1c[nH]c2ccccc12)C(=O)O [D-Trp, D-Tryptophan, reference compound]
time the compound is stable in solution (HPLC peak area) [1]: about 20 days

Compound: GHRP-6 [reference compound]
GH in medium ([3]; 10^-6 M): 510.0 ± 12.0 ng/well | GH in medium ([3]; 10^-7 M): 526.5 ± 19.0 ng/well | GH in medium ([3]; 10^-8 M): 544.2 ± 23.9 ng/well | GH secretion versus basal ([3]; 10^-8 to 10^-6 M, two hours): stimulation of GH secretion over basal secretion | plasma GH ([4]; i.v. 150 μg/kg, 10 min): 394.0 ± 31.0 ng/mL | plasma GH ([4]; i.v. 150 μg/kg, 20 min): 139.3 ± 10.2 ng/mL | plasma GH ([4]; i.v. 150 μg/kg, 30 min): 42.5 ± 4.5 ng/mL | plasma GH ([4]; i.v. 150 μg/kg, time 0 min (before injection)): 30.2 ± 7.8 ng/mL | plasma GH ([4]; i.v. 300 μg/kg, 10 min): 413.6 ± 21.5 ng/mL | plasma GH ([4]; i.v. 300 μg/kg, 20 min): 162.7 ± 22.1 ng/mL | plasma GH ([4]; i.v. 300 μg/kg, 30 min): 38.2 ± 7.7 ng/mL | plasma GH ([4]; i.v. 300 μg/kg, time 0 min (before injection)): 21.9 ± 4.4 ng/mL | plasma GH ([4]; i.v. 600 μg/kg, 10 min): 542.0 ± 38.0 ng/mL | plasma GH ([4]; i.v. 600 μg/kg, 20 min): 195.5 ± 11.0 ng/mL | plasma GH ([4]; i.v. 600 μg/kg, time 0 min (before injection)): 21.2 ± 6.1 ng/mL | plasma GH ([5]; s.c. 150 μg/kg, 10 min): 63.1 ± 11.0 ng/mL | plasma GH ([5]; s.c. 150 μg/kg, 20 min): 110.4 ± 18.0 ng/mL | plasma GH ([5]; s.c. 150 μg/kg, 30 min): 77.2 ± 14.0 ng/mL | plasma GH ([5]; s.c. 150 μg/kg, time 0 min (before injection)): 20.0 ± 5.0 ng/mL | plasma GH ([5]; s.c. 300 μg/kg, 10 min): 63.9 ± 12.8 ng/mL | plasma GH ([5]; s.c. 300 μg/kg, 20 min): 123.4 ± 14.6 ng/mL | plasma GH ([5]; s.c. 300 μg/kg, 30 min): 87.7 ± 11.8 ng/mL | plasma GH ([5]; s.c. 300 μg/kg, time 0 min (before injection)): 20.0 ± 6.0 ng/mL | plasma GH ([5]; s.c. 600 μg/kg, 10 min): 93.1 ± 22.3 ng/mL | plasma GH ([5]; s.c. 600 μg/kg, 20 min): 167.1 ± 14.7 ng/mL | plasma GH ([5]; s.c. 600 μg/kg, 30 min): 107.8 ± 9.5 ng/mL | plasma GH ([5]; s.c. 600 μg/kg, time 0 min (before injection)): 18.0 ± 4.0 ng/mL | POST-DRUG PLASMA GH ([6]; s.c. 25 μg/kg, 0 min (basal)): 41 ± 16 ng/mL | POST-DRUG PLASMA GH ([6]; s.c. 25 μg/kg, 15 min): 222 ± 95 ng/mL | POST-DRUG PLASMA GH ([6]; s.c. 25 μg/kg, 40 min): 110 ± 47 ng/mL | POST-DRUG PLASMA GH ([6]; s.c. 50 μg/kg, 0 min (basal)): 57 ± 39 ng/mL | POST-DRUG PLASMA GH ([6]; s.c. 50 μg/kg, 15 min): 262 ± 58 ng/mL | POST-DRUG PLASMA GH ([6]; s.c. 50 μg/kg, 40 min): 97 ± 44 ng/mL | Dead rats/Total N° of rats per group ([7]; single i.v. dose 2.5 mg/kg): 0/6 | Dead rats/Total N° of rats per group ([7]; single i.v. dose 5.0 mg/kg): 1/6 | Dead rats/Total N° of rats per group ([7]; single i.v. dose 7.5 mg/kg): 2/6 | Mean GH [8]: 131 ± 13 ng/mL | Peak GH [8]: 293 ± 41 ng/mL | GH AUC ([8]; thirty minutes following injection): 4220 ± 665 ng/ml/30 min
